{"source": "patent US20130280258A1", "about": "“PROGNOSTIC, DIAGNOSTIC, AND CANCER THERAPEUTIC USES OF FANCI AND FANCI MODULATING AGENTS” (Miltenyi Biotec GmbH, priority 2007, published 2013)", "test_system": "U2OS cells", "assay": "Multicolor competition assay (MCA) of DNA damage sensitivity", "assay_type": "cell-based", "settings": "7 days of culture, read-out: concentration resulting in about 50% survival of non-transfected cells", "description": "U2OS cells were infected with MSCVgfp or MSCVdsRed, which were packaged in 293T by co-transfection with VSVG vector using TransIT-293 (Minis). Without selection, the cells were sorted using the Aria Sorter (BD) for intermediate expression. The gfp cells grew slightly faster than the rfp cells and this was taken into account when calculating the changes in survival due to treatment with DNA damaging agents. siRNA transfections were performed as described above with gfp cells being transfected with a control siRNA (luciferase) and rfp cells with an siRNA of interest. On the third day after transfections, gfp and rfp cells were counted and mixed in 1 to 1 ratio and were left untreated or were treated with IR or MMC. The concentration of Mitomycin C (Sigma) was chosen to result in about 50% survival of non-transfected cells, which was about 70 nM MMC for U2OS cells. After 7 days of culture, all cells were collected and analyzed using Cytomix FC500 Analyzer (Beckman Coulter). […]\nTwo populations of U20S (osteosarcoma) cells differing only in their color were created by expression of red fluorescent protein (RFP) or green fluorescent protein (GFP). siRNA depletion of the protein of interest was carried out in the […] were transfected with control siRNA. […] After 7 days, cells were harvested and a ratio of red to green cells was determined using flow cytometry. […]"}
{"molecule": "CO[C@@]12[C@H](COC(N)=O)C3=C(C(=O)C(C)=C(N)C3=O)N1C[C@@H]1N[C@@H]12", "note": "[Mitomycin C]", "values": [{"measurement": "IC50", "value": "~70", "unit": "nM"}]}
